Where two headings read alike, the source gives them in different places.
Experiments:
TbPTR1 = molecular target: T1, TbPTR1 (Trypanosoma brucei brucei, UniProt O76290); experiment: Spectrophotometric inhibition assay with recombinant TbPTR1; type: biochemical; conditions: for inhibition at 100 µM: read-out: TbPTR1 Inhibition at 100 µM (%); for EC50: EC50 reported because complete inhibition not reached (solubility issues), read-out: TbPTR1 EC50 (footnote a in IC50 column)
T1 sequence (O76290 1-268): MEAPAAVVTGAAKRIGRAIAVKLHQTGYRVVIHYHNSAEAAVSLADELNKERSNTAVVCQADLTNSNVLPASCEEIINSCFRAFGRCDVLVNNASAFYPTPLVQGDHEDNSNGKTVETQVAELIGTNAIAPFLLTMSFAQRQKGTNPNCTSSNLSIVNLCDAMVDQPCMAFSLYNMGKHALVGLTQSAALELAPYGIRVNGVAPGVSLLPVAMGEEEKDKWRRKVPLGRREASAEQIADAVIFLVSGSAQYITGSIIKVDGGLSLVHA
Method: The concentration and the activity of TbPTR1, as well as the saturating conditions of its substrate and co-substrate were determined by monitoring the oxidation of the co-substrate NADPH to NADP^+ via UV/Vis spectroscopy (Hitachi U-2900, Tokyo, Japan). […] The experiments were carried out as triplicates using buffer A (50 mM Tris/HCl (pH 7.6), 250 mM NaCl).
(§1) The concentration of TbPTR1 was 3.23 mg/mL. Its specific activity was calculated to be 0.03 U/mg. All experiments were carried out using the saturating concentrations of folic acid (8 µM) and NADPH (150 µM). The diagrams for the determination of the saturating conditions are depicted in the Supplementary Materials Figure S15.
(§2) All measurements were carried out as duplicates and compared with a reference containing no inhibitor. The reference measurements were used to determine the full catalytic activity of the respective enzyme (100%), and the relative catalytic activity of all following measurements including inhibitors was calculated accordingly.
(§3) The compounds that were able to inhibit the activity of TbPTR1 or TbDHFR ≥ 50% in the single concentration assays were further investigated by the determination of their half maximal inhibitory concentration (IC50), including at least five inhibitor concentrations. If a complete inhibition of the enzyme could not be achieved experimentally due to the given assay conditions, the half maximal effective concentration (EC50) was determined instead. All measurements were carried out as triplicates against a reference containing no inhibitor at saturating conditions (Section 4.8.). The documented enzyme activity was analysed by nonlinear regression using GraphPad Prism 8 (GraphPad Software Inc., La Jolla, CA, USA).

T. brucei rhodesiense = conditions: in vitro growth inhibition; cited from earlier work
TbDHFR = TbDHFR (Trypanosoma brucei brucei, UniProt Q27783); experiment: Spectrophotometric inhibition assay with recombinant TbDHFR; type: biochemical; conditions: for inhibition at 50 µM / TbDHFR Inhibition at 50 µM (%): NADPH 150 µM, DHF 50 µM
TbDHFR, sequence (Q27783 28-238 limits assumed): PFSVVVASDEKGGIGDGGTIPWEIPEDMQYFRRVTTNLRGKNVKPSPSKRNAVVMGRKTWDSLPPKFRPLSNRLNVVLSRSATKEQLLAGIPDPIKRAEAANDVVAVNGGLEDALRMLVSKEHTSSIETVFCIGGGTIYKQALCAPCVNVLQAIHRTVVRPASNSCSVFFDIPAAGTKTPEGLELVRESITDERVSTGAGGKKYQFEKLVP
Method: Kinetic analysis of TbDHFR was performed according to 4.5. All measurements were carried out as triplicates using buffer B (50 mM Tris/HCl (pH 7.6), 250 mM NaCl, 10 mM BME).
as §1, with “TbDHFR” for “TbPTR1”, “0.04 mg/mL with a” for “3.23 mg/mL. Its”, “of 38.1” for “was calculated to be 0.03”, “dihydrofolate (DHF, 50” for “folic acid (8”, “S16.” for “S15.”
as §2, §3

T. brucei = tested on: T. brucei; set-up: method as in PMID 22331812; conditions: acute mouse model; cited from earlier work
[1] = 100 µM compound, NADPH 150 µM, folic acid 8 µM
[2] = 50 µM compound, read-out: TbDHFR Inhibition at 50 µM (%)

| Compound | inhibition at 100 µM (TbPTR1; [1]) [%] | IC50 (T. brucei rhodesiense) [nM] | inhibition at 50 µM (TbDHFR; [2]) [%] | other results |
| --- | --- | --- | --- | --- |
| C=C1C(=O)OC2C=C(C)C(O)CC=C(C)CC(OC(=O)C(=CCOC(=O)C(O)C(C)C)CO)C12 (stereo not shown) [Compound 9] | 28.5 | 2600 | 95.9 | – |
| C=C1C(=O)O[C@@H]2/C=C(\CO)CC/C=C(\C)C[C@H](OC(=O)C(=C)[C@H](O)CO)[C@@H]12 [Compound 1, cnicin] | 63.9 | 400 | 15.2 | EC50 (TbPTR1): 21200 nM |
| C=C1C(=O)OC2C=C(C)C(OC(C)=O)CC=C(C)CC(OC(=O)C(=CCO)CO)C12 (stereo not shown) [Compound 5, (Z)-eucannabinolide] | 58.1 | 1700 | – | EC50 (TbPTR1): 31500 nM; TbDHFR Inhibition at 50 µM (%) (TbDHFR; 50 µM compound): No TbDHFR inhibition could be detected and n.i. |
| C=C(CO)C(=O)O[C@H]1CC(=C)[C@@H]2C[C@H](O)C(=C)[C@@H]2[C@H]2OC(=O)C(=C)[C@@H]21 [Compound 2, cynaropicrin] | – | 300 | – | IC50 (TbPTR1): 12400 nM; inhibition at 100 µM (TbPTR1): 92.1%; in vivo activity against the parasite (T. brucei): in vivo activity against the parasite; IC50 (TbDHFR): 7100 nM |
| C=C1C(=O)O[C@H]2[C@H]1[C@H](OC(=O)/C(=C/COC(=O)C(O)C(C)C)CO)C[C@]1(C)[C@@H]2[C@H](C)C(=O)C[C@H]1O (stereo partly shown) [Compound 8] | 14.2 | 2700 | 40.7 | – |
| C=C1C(=O)O[C@@H]2/C=C(/CO)C3=CC(=O)[C@@](C)(C[C@@H](OC(=O)/C(C)=C\C)[C@@H]12)O3 [Compound 4] | 79.9 | 100 | 34.9 | IC50 (TbPTR1): 30500 nM |
| C=C1C(=O)OC2C=C(C)C(OC(=O)C(O)C(C)C)CC=C(C)CC(OC(=O)C(=CCO)CO)C12 (stereo not shown) [Compound 6] | 33.1 | 800 | – | TbDHFR Inhibition at 50 µM (%) (TbDHFR; 50 µM compound): n.i. |
| C=C1C(=O)O[C@@H]2/C=C(\C)C[C@H](O)/C=C(\C)C[C@@H](OC(=O)/C(=C\C)COC(C)=O)[C@@H]12 [Compound 7] | – | 1600 | – | inhibition at 100 µM (TbPTR1): 25.6%; inhibition at 50 µM (TbDHFR; read-out: TbDHFR Inhibition at 50 µM (%), 50 µM compound): 48.7% |
| C=C1C(=O)OC2C1CC(OC(=O)C(C)C(C)O)C(C)=CCCC1(C)OC21 (stereo not shown) [Compound 3] | 73.1 | 1300 | > 50 | IC50 (TbPTR1; saturating conditions, nonlinear regression, read-out: TbPTR1 IC50): 40500 nM; IC50 (TbDHFR; saturating conditions, nonlinear regression, read-out: TbDHFR IC50): 13300 nM |
| C=C1C(=O)OC2C=C(C)C(O)CC=C(C)CC(OC(=O)C(=CCOC(=O)C(O)C(C)CC)CO)C12 (stereo not shown) [Compound 10] | 26.7 | 4000 | 20.1 | – |

Source: PMC8747069, “Sesquiterpene Lactones with Dual Inhibitory Activity against the Trypanosoma brucei Pteridine Reductase 1 and Dihydrofolate Reductase” (Molecules, 2021)
